Experimental data: patent US11369113B2, “Vector control compositions, methods and products utilizing same” (Syngenta Participations AG, priority 2017, dated 2022)
Like-named read-outs stand apart in the source and are kept apart here.

Assays:
Assay type in all cases: in vivo
[1] = test system: Aedes aegypti (Yellow Fever Mosquito); test: whole plant or invertebrate; conditions: for mortality at 0.2 ppm / mortality at 2 ppm / mortality at 20 ppm: Aedes aegypti
Experimental: (§1) […] Once the deposits were dry, five non-blood fed adult female Aedes aegypti (between two to five day old) were added to each well, and sustained with a 10% sucrose solution in a cotton wool plug. Assessment of the knockdown was carried our after 1 hour, and mortality after 24 hours and 48 hours.

[2] = test system: Anopheles stephensi (Indian Malaria Mosquito); test: Example B2: treated 12-well plate contact test, adult female Anopheles stephensi; conditions: for mortality at 0.2 ppm / mortality at 2 ppm / mortality at 20 ppm: Anopheles stephensi
Experimental: as §1, with “Anopheles stephensi” for “Aedes aegypti”

Anopheles stephensi = test: Example B3: treated 6-well plate contact test, adult female Anopheles stephensi; conditions: for mortality at 0.3125 ppm / mortality at 0.625 ppm / mortality at 1.25 ppm / mortality at 2.5 ppm: Anopheles stephensi; for Knockdown 1 h: mean of two replicates
Experimental: The individual wells of six (6) well tissue culture plates were treated with 250 μl of an ethanol solution containing a test compound at a defined concentration. Once the deposits were dry, ten non-blood fed adult female Anopheles stephensi (each between two to five day old) were added to each well, and sustained with a 10% sucrose solution in a cotton wool plug. Assessment of the knockdown was carried our after 1 hour, and mortality after 24 hours and 48 hours. Each treatment was replicated twice, with the mean mortality recorded.

[3] = test system: VK7 2014 (An. coluzzii, DDT & pyrethroid resistant); test: Example B4: bottle based cross resistance study (CDC bottle assay), strain VK7 2014; design: unit not given here; conditions: 1 h bottle exposure
Experimental: (§2) Based on the “CDC bottle assay” (described at http://www.cdc.gov/malaria/resources/pdf/fsp/ir_manual/ir_cdc_bioassay_en.pdf) 1 ml of ethanol containing a test compound at a defined concentration was added to a 250 ml glass bottle and the bottles were placed on a rolling table to coat the inner surfaces as the solvent evaporated. Once dry, twenty five non-blood fed adult female mosquitoes of the appropriate species and strains (each three day old) were aspirated from the stock culture and gently blown into the exposure bottles. The lid of the bottle was replaced and the bottle placed upright out of direct sun light under standard culture conditions, nominally 26° C. and 60-80% relative humidity.
(§3) A stopwatch was started, and the assessment of the knock-down were made after 15 mins and 60 minutes. A mosquito was said to be knocked down if it was unable to stand, following the CDC definition. The bottles were replaced in an upright position when not being assessed.
(§4) After one hour the mosquitoes were carefully removed from the bottle with an aspirator and placed in a recovery cup. The mosquitoes were supplied with a 10% sucrose solution on a cotton wool bung, and stored under culture conditions. Assessments of the mortality were made after 24 hours.
(§5) Each treatment was replicated a minimum of three times, with the exception of the Banfora strain, where only a single replicate was undertaken, with the mean knockdown or mortality recorded. In each study, a set of bottles was infested with a known insecticide susceptible strain of mosquitoes from the same genera as the resistant strains.

[4] = test system: Tiassalé 13 (An. gambiae, pyrethroid resistant); test: Example B4: bottle based cross resistance study (CDC bottle assay), strain Tiassalé 13; conditions: Anopheles gambiae, read-out: mean knockdown or mortality (Table B4 does not name the quantity)
Experimental: as §2, §3, §4, §5

[5] = test system: Banfora (An. gambiae, DDT & pyrethroid resistant); test: Example B4: bottle based cross resistance study (CDC bottle assay), strain Banfora; conditions: Anopheles gambiae, read-out: knockdown or mortality (Table B4 does not name the quantity)
Experimental: as §2, §3, §4, §5

[6] = test system: Kisumu sus (Anopheles gambiae, susceptible); test: Example B4: bottle based cross resistance study (CDC bottle assay), strain Kisumu sus; conditions: read-out: mean knockdown or mortality (Table B4 does not name the quantity)
Experimental: as §2, §3, §4, §5

[7] = 0.2 ppm, 24 h, read-out: adult mortality 24 h
[8] = 0.2 ppm, 48 h, read-out: adult mortality 48 h
[9] = 2 ppm, 24 h, read-out: adult mortality 24 h
[10] = 2 ppm, 48 h, read-out: adult mortality 48 h
[11] = 20 ppm, 24 h, read-out: adult mortality 24 h
[12] = 20 ppm, 48 h, read-out: adult mortality 48 h
[13] = 24 h, read-out: adult mortality 24 h
[14] = 48 h, read-out: adult mortality 48 h
[15] = Tiassalé 13, rate 6.25 ppm, 1 h bottle exposure
[16] = Tiassalé 13, rate 12.5 ppm, 1 h bottle exposure
[17] = Tiassalé 13, rate 25 ppm, 1 h bottle exposure
[18] = Banfora, rate 6.25 ppm, 1 h bottle exposure, single replicate
[19] = Banfora, rate 12.5 ppm, 1 h bottle exposure, single replicate
[20] = Banfora, rate 25 ppm, 1 h bottle exposure, single replicate

SMILES: CO/C=C(/C(=O)OC)c1ccccc1Oc1nc(Cl)c(C(F)(F)F)s1 [Compound of formula I, Methyl (E)-2-[2-[4-chloro-5-(trifluoromethyl)thiazol-2-yl]oxyphenyl]-3-methoxy-prop-2-enoate]
- adult knockdown 1 h ([1]; 0.2 ppm): 0
- adult knockdown 1 h ([1]; 2 ppm): 20
- adult knockdown 1 h ([1]; 20 ppm): 100
- mortality at 0.2 ppm [1, 7]: 20%
- mortality at 0.2 ppm [1, 8]: 20%
- mortality at 2 ppm [1, 9]: 60%
- mortality at 2 ppm [1, 10]: 80%
- mortality at 20 ppm [1, 11]: 100%
- mortality at 20 ppm [1, 12]: 100%
- adult knockdown 1 h ([2]; 0.2 ppm): 0
- adult knockdown 1 h ([2]; 2 ppm): 80
- adult knockdown 1 h ([2]; 20 ppm): 100
- mortality at 0.2 ppm [2, 13]: 20%
- mortality at 2 ppm [2, 13]: 100%
- mortality at 20 ppm [2, 13]: 100%
- mortality at 0.2 ppm [2, 14]: 20%
- mortality at 2 ppm [2, 14]: 100%
- mortality at 20 ppm [2, 14]: 100%
- mortality at 0.3125 ppm (Anopheles stephensi; 24 h, read-out: Mortality 24 h): 63%
- mortality at 0.625 ppm (Anopheles stephensi; 24 h, read-out: Mortality 24 h): 80%
- mortality at 1.25 ppm (Anopheles stephensi; 24 h, read-out: Mortality 24 h): 98%
- mortality at 2.5 ppm (Anopheles stephensi; 24 h, read-out: Mortality 24 h): 100%
- mortality at 0.3125 ppm (Anopheles stephensi; 48 h, read-out: Mortality 48 h): 65%
- mortality at 0.625 ppm (Anopheles stephensi; 48 h, read-out: Mortality 48 h): 82%
- mortality at 1.25 ppm (Anopheles stephensi; 48 h, read-out: Mortality 48 h): 100%
- mortality at 2.5 ppm (Anopheles stephensi; 48 h, read-out: Mortality 48 h): 100%
- Knockdown 1 h (Anopheles stephensi; rate 0.3125 ppm): 20
- Knockdown 1 h (Anopheles stephensi; rate 0.625 ppm): 43
- Knockdown 1 h (Anopheles stephensi; rate 1.25 ppm): 70
- Knockdown 1 h (Anopheles stephensi; rate 2.5 ppm): 87
- mean knockdown or mortality (Table B4 does not name the quantity) ([3]; VK7 2014, rate 6.25 ppm): 10
- mean knockdown or mortality (Table B4 does not name the quantity) ([3]; VK7 2014, rate 12.5 ppm): 61
- mean knockdown or mortality (Table B4 does not name the quantity) ([3]; VK7 2014, rate 25 ppm): 100
- mean knockdown or mortality at 6.25 ppm [4, 15]: 69%
- mean knockdown or mortality at 12.5 ppm [4, 16]: 81%
- mean knockdown or mortality at 25 ppm [4, 17]: 100%
- knockdown or mortality (%) at 6.25 ppm [5, 18]: 26%
- knockdown or mortality (%) at 12.5 ppm [5, 19]: 52%
- knockdown or mortality (%) at 25 ppm [5, 20]: 100%
- percent knockdown or mortality at 6.25 ppm ([6]; Kisumu sus, rate 6.25 ppm, 1 h bottle exposure): 74%
- percent knockdown or mortality at 12.5 ppm ([6]; Kisumu sus, rate 12.5 ppm, 1 h bottle exposure): 99%
- percent knockdown or mortality at 25 ppm ([6]; Kisumu sus, rate 25 ppm, 1 h bottle exposure): 100%

SMILES: CO/C=C(/C(=O)OC)c1ccccc1Oc1ncc(C(F)(F)F)s1 [Compound of formula II, Methyl (E)-3-methoxy-2-[2-[5-(trifluoromethyl)thiazol-2-yl]oxyphenyl]-prop-2-enoate]
- adult knockdown 1 h ([1]; 0.2 ppm): 0
- adult knockdown 1 h ([1]; 2 ppm): 0
- adult knockdown 1 h ([1]; 20 ppm): 100
- mortality at 0.2 ppm [1, 7]: 0%
- mortality at 0.2 ppm [1, 8]: 0%
- mortality at 2 ppm [1, 9]: 0%
- mortality at 2 ppm [1, 10]: 0%
- mortality at 20 ppm [1, 11]: 100%
- mortality at 20 ppm [1, 12]: 100%
- adult knockdown 1 h ([2]; 0.2 ppm): 0
- adult knockdown 1 h ([2]; 2 ppm): 0
- adult knockdown 1 h ([2]; 20 ppm): 100
- mortality at 0.2 ppm [2, 13]: 0%
- mortality at 2 ppm [2, 13]: 80%
- mortality at 20 ppm [2, 13]: 100%
- mortality at 0.2 ppm [2, 14]: 0%
- mortality at 2 ppm [2, 14]: 100%
- mortality at 20 ppm [2, 14]: 100%
- mortality at 0.3125 ppm (Anopheles stephensi; 24 h, read-out: Mortality 24 h): 15%
- mortality at 0.625 ppm (Anopheles stephensi; 24 h, read-out: Mortality 24 h): 33%
- mortality at 1.25 ppm (Anopheles stephensi; 24 h, read-out: Mortality 24 h): 83%
- mortality at 2.5 ppm (Anopheles stephensi; 24 h, read-out: Mortality 24 h): 93%
- mortality at 0.3125 ppm (Anopheles stephensi; 48 h, read-out: Mortality 48 h): 22%
- mortality at 0.625 ppm (Anopheles stephensi; 48 h, read-out: Mortality 48 h): 30%
- mortality at 1.25 ppm (Anopheles stephensi; 48 h, read-out: Mortality 48 h): 88%
- mortality at 2.5 ppm (Anopheles stephensi; 48 h, read-out: Mortality 48 h): 97%
- Knockdown 1 h (Anopheles stephensi; rate 0.3125 ppm): 13
- Knockdown 1 h (Anopheles stephensi; rate 0.625 ppm): 27
- Knockdown 1 h (Anopheles stephensi; rate 1.25 ppm): 48
- Knockdown 1 h (Anopheles stephensi; rate 2.5 ppm): 73
- mean knockdown or mortality (Table B4 does not name the quantity) ([3]; VK7 2014, rate 6.25 ppm): 7
- mean knockdown or mortality (Table B4 does not name the quantity) ([3]; VK7 2014, rate 12.5 ppm): 18
- mean knockdown or mortality (Table B4 does not name the quantity) ([3]; VK7 2014, rate 25 ppm): 100
- mean knockdown or mortality at 6.25 ppm [4, 15]: 55%
- mean knockdown or mortality at 12.5 ppm [4, 16]: 46%
- mean knockdown or mortality at 25 ppm [4, 17]: 100%
- knockdown or mortality (%) at 6.25 ppm [5, 18]: 13%
- knockdown or mortality (%) at 12.5 ppm [5, 19]: 33%
- knockdown or mortality (%) at 25 ppm [5, 20]: 100%
- percent knockdown or mortality at 6.25 ppm ([6]; 1 h): 61%
- percent knockdown or mortality at 12.5 ppm ([6]; 1 h): 33%
- percent knockdown or mortality at 25 ppm ([6]; 1 h): 100%

SMILES: CC1(C)C(C=C(Cl)Cl)C1C(=O)OCc1cccc(Oc2ccccc2)c1 (stereo not drawn) [Permethrin]
- mean knockdown or mortality (Table B4 does not name the quantity) ([3]; VK7 2014, rate 6.25 ppm): 5
- mean knockdown or mortality (Table B4 does not name the quantity) ([3]; VK7 2014, rate 12.5 ppm): 3
- mean knockdown or mortality (Table B4 does not name the quantity) ([3]; VK7 2014, rate 25 ppm): 7
- mean knockdown or mortality at 6.25 ppm ([4]; 1 h): 13%
- mean knockdown or mortality at 12.5 ppm ([4]; 1 h): 45%
- mean knockdown or mortality at 25 ppm ([4]; 1 h): 69%
- knockdown or mortality (%) at 6.25 ppm ([5]; 1 h): 14%
- knockdown or mortality (%) at 12.5 ppm ([5]; 1 h): 38%
- knockdown or mortality (%) at 25 ppm ([5]; 1 h): 45%
- percent knockdown or mortality at 5 ppm ([6]; 1 h): 100%
- percent knockdown or mortality at 10 ppm ([6]; 1 h): 100%
- percent knockdown or mortality at 20 ppm ([6]; 1 h): 100%
